Experiments:
[1] = tested on: AKT phosphorylation at T308 in PC-3 cells; experiment: Phospho-AKT (T308) ELISA in PC3 cells; assay type: cell-based; settings: Homo sapiens, 6 hours compound treatment, in at least one experimental run, read-out: IC50 for inhibition of AKT phosphorylation at T308 in PC-3 cells
Protocol: Phospho-AKT (S473, T308, Total AKT) and phospho-RSK ELISA
PC3 cells (ATCC, Manassas, Va.) were plated in 96-well flat bottom plates (Corning, Lowell, Mass.) at a density of 15,000 cells/well in RPMI 1640 medium supplemented with 10% FBS. Cells were incubated at 37° C., 5% CO2 for 18-20 h. Compounds (dissolved in 100% DMSO) were diluted in an 11-point 3-fold dilution in DMSO. Compound dilution stocks were further diluted in RPMI 1640 with 10% FBS and added to each cell well. DMSO without compound was used in control wells. Final concentration of DMSO in each well was 0.15%. After 6 hours at 37° C. cells were washed with cold PBS (without calcium or magnesium) and lysed in lysis buffer (Meso Scale Discovery, Gaithersburg, Md.) supplemented with 1 protease inhibitor tablet/10 ml (Roche, Indianapolis, Ind.), 10 mM NaF, and 200 μl/10 ml Sigma phosphatase inhibitor 1 & 2 (Sigma Aldrich, St Louis, Mo.) for 30 min at 4° C. All washes were performed on a Bio Tek ELx405 plate washer (Bio Tek Instruments, Winooski, Vt.).
ELISA plates (Meso Scale Discovery; AKT Duplex, cat. N41100B-1; phospho AKT, cat. N411CAB-1; RSK, cat. N41ZB-1) were prepared by the addition of blocking buffer (3% Blocker A diluted in wash buffer (Meso Scale Discovery) for AKT duplex assay and phospho AKT assays; 5% Blocker A/1% Blocker B in Tris-buffered saline for RSK) for 1 hour and washed with wash buffer. Lysates were transferred to assay wells and incubated overnight at 4° C. Following washing with wash buffer, detection buffer (1% Blocker A in wash buffer for AKT duplex and phospho AKT or 1% Blocker A in TBS for RSK) with appropriate antibodies was added. Detection of AKT duplex and phospho AKT was carried out using a sulfo-tagged detection antibodies (Meso Scale Discovery). Detection of phospho-RSK was carried out sequentially with anti phospho-RSK1 (S221)/RSK2 (S227) (R&D systems, Minneapolis, Minn., cat. AF892) and goat anti-rabbit sulfo-tag antibody (cat R32AB-1; Meso Scale Discovery). Plates were incubated for 1 hour at room temperature and washed with wash buffer. Plates were read on a SECTOR™ Imager 6000 (Meso Scale Discovery) using Workbench software (Meso Scale Discovery) following addition of read buffer (Meso Scale Discovery) to each well. For analysis, phospho-AKT (S473) signals were normalized to total AKT, while phospho-AKT (T308) and phospho-RSK signals were analyzed without normalization. All values were expressed as percent of the DMSO-treated controls. IC50s were determined from inhibition curves using XLfit4 software (IDBS, Guildford, UK).

full length PDK1 = biological target: T1, full length PDK1 (Homo sapiens, UniProt O15530); experiment: PDK1 enzyme assays (substrate phosphorylation: LEADseeker scintillation proximity, TR-FRET, PDKtide); assay type: biochemical; settings: in at least one experimental run, read-out: IC50 against full length PDK1
T1 construct: Full-length human 3-Phosphoinositide Dependent protein Kinase-1; made in house; host or cells: baculovirus / Sf9 insect cells
T1 sequence (O15530 1-556): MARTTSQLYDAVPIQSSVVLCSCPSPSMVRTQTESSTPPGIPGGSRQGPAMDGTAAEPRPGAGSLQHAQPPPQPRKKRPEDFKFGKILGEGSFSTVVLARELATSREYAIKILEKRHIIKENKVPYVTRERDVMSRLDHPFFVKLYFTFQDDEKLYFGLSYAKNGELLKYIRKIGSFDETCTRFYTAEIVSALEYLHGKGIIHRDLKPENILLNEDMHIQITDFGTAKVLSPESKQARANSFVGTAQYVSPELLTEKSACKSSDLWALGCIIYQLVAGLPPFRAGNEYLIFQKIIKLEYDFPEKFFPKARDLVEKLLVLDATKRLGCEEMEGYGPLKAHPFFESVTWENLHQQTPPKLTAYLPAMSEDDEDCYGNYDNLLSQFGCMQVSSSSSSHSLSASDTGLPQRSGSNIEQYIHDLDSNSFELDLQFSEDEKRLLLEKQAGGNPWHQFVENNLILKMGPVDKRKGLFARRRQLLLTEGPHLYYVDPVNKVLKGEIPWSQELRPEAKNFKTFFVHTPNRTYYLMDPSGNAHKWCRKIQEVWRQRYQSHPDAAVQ
Protocol: Substrate phosphorylation assays are carried out as follows:
Biotinylated-hAKT1: Human AKT1 (containing amino acid residues 136-480, as annotated by National Center for Biotechnology Information (NCBI) accession number AAL55732.1, with a MetLysLysHis6 N-terminal addition) is purified to >90% from lysate of baculovirus expression by Nickel Chelating ProBond resin (InVitrogen), Q-Sepharose Fast Flow, and Superdex 200 size exclusion chromatography. Biotinylation is achieved using EZ-Link Sulfo-NHS-LC Biotin (Pierce). Samples, in 25 mM HEPES, pH 7.5, 200 mM NaCl, 2 mM DTT, and 30% glycerol are stored at −80C until use.
Full-length human 3-Phosphoinositide Dependent protein Kinase-1 (hPDK1; National Center for Biotechnology Information (NCBI) accession number AAH39158.1 with a MetGlyHis6 N-terminal addition) is purified from baculovirus expression in Sf9 cells. Purity of approximately 80% is achieved by the use of chelation chromatography (Ni-NTA Superflow) and desalting columns. Samples, in 25 mM HEPES, 150 mM NaCl, 2.5 mM DTT, 0.05% Triton, 30% glycerol, pH 8.0, are stored at −80° C. until use.
The 39 amino acid biotinylated-PDKtide peptide Seq. ID No. 1: (Biotin-Ahx-[…]) was custom synthesized by 21st Century Biochemicals. […] The concentration was confirmed by quantitative amino acid analysis.
Scintillation Proximity (LEADseeker) Kinase Assay of Purified hPDK1:
Assays are performed in 384-well microtiter plates (Greiner, Catalog No. 784075). The reaction volume (10 μl) contains, in final concentrations, 25 mM MOPS (pH 7.5), 10 mM MgCl2, 50 mM KCl, 0.1 mg/ml BSA, 1 μM ATP, 3 uCi/ml ^33PγATP, 5 mM DTT, 1 mM CHAPS or 0.05% Tween20, 0.35 μM AKT1 biotinylated protein, and 10 nM hPDK1.
Compounds, titrated in DMSO, are evaluated at eleven concentrations ranging from 50 μM to 2 μM. […] Reactions are stopped after 3 hours at room temperature by the addition of 50 mM EDTA, 5 mg/ml LEADseeker beads (GE Healthcare) in PBS (10 ul). Beads are allowed to settle overnight, and samples are imaged on Viewlux (PerkinElmer).
The data for compound concentration responses were plotted as % Inhibition, calculated with the data reduction formula 100*(1−[(U1−C2)/(C1−C2)]), versus concentration of compound, where
Data were fitted to the curve described by:
TR-FRET Kinase Assay of Purified hPDK1:
Assays are performed in 384-well microtiter plates (Greiner, Catalog No. 784076).
As previously described for the Scintillation Proximity protocol, hPDK1 is pre-incubated (30 minutes at room temperature) with compounds before initiating phosphorylation of AKT1 by addition of substrate to the hPDK1 and compound mix. Reactions are stopped after 4-6 hours at room temperature by the addition to final concentrations of 0.02 M EDTA, 0.0875 μM Streptavidin APC (PerkinElmer), 0.03 μM AKT1 (phospho T308) antibody (Abcam Inc.), 0.00375 μM Lance Eu-labeled anti rabbit IgG Antibody (PerkinElmer). Antibody binding reaches equilibrium in 30 minutes before signal is read on an EnVision™ 2103 Multilabel Reader (PerkinElmer). APC Signals are normalized to Europium signal. Data processing is the same as described for the Scintillation Proximity assay with the exception of the generation of the “C2” control by addition of buffer without hPDK1 to control wells at t=0 instead of EDTA.
Scintillation Proximity (LEADseeker) Kinase Assay of Purified hPDK1 using Biotinylated-PDKtide Peptide:
Assays are performed in 384-well microtiter plates (Greiner, Catalog No. 784075). The reaction volume (10 μl) contains, in final concentrations, 25 mM MOPS (pH 7.5), 10 mM MgCl2, 50 mM KCl, 0.1 mg/ml BSA, 1 μM ATP, 3 uCi/ml ^33PγATP, 5 mM DTT, 0.5 mM CHAPS, 1 μM biotinylated-PDKtide peptide, and 0.5 nM hPDK1.
Compounds, titrated in DMSO, are evaluated at eleven concentrations ranging from 25 μM to 0.4 pM. […] Reactions are stopped after 4 hours at room temperature by the addition of 50 mM EDTA, 5 mg/ml LEADseeker beads (GE Healthcare) in PBS (10 ul).

Structure (SMILES) | IC50 [1] [nM] | IC50 (full length PDK1) [nM]
CNc1nc(-c2ccc3c(N)n[nH]c3c2)cc(N2CC(C(=O)NC3CCCCC3)CCC2C(F)(F)F)n1 (stereo not drawn) [Example 49, Cis-1-[6-(3-Amino-1H-indazol-6-yl)-2-(methylamino)-4-pyrimidinyl]-N-cyclohexyl-6-(trifluoromethyl)-3-piperidinecarboxamide] | < 1000 | –
C[C@@H]1CO[C@H](C(=O)Nc2ccccc2)CN1c1cc(-c2ccc3c(N)n[nH]c3c2)nc(N)n1 [Example 67, (2S,5R)-4-[2-Amino-6-(3-amino-1H-indazol-6-yl)-4-pyrimidinyl]-5-methyl-N-phenyl-2-morpholinecarboxamide] | < 1000 | –
CNc1nc(-c2ccc3c(N)n[nH]c3c2)cc(N2C[C@@H](C(=O)Nc3ccccc3)CC[C@H]2C)n1 [Example 77, (3S,6R)-1-[6-(3-amino-1H-indazol-6-yl)-2-(methylamino)-4-pyrimidinyl]-6-methyl-N-phenyl-3-piperidinecarboxamide] | < 1000 | –
CNc1nc(-c2ccc3c(N)n[nH]c3c2)cc(N2C[C@@H](C(=O)NC3CCCCC3)CC[C@H]2C)n1 [Example 78, (3S,6R)-1-[6-(3-Amino-1H-indazol-6-yl)-2-(methylamino)-4-pyrimidinyl]-N-cyclohexyl-6-methyl-3-piperidinecarboxamide] | < 1000 | –
CNc1nc(-c2ccc3cn[nH]c3c2)cc(N2C[C@@H](C(=O)NCc3ccccc3)CC[C@H]2C)n1 [Example 81, (3S,6R)-1-[6-(1H-Indazol-6-yl)-2-(methylamino)-4-pyrimidinyl]-6-methyl-N-(phenylmethyl)-3-piperidinecarboxamide] | < 1000 | –
CNc1nc(-c2ccc3c(C)n[nH]c3c2)cc(N2C[C@@H](C(=O)NC3CCCCC3)CC[C@H]2C)n1 [Example 83, (3S,6R)—N-Cyclohexyl-6-methyl-1-[2-(methylamino)-6-(3-methyl-1H-indazol-6-yl)-4-pyrimidinyl]-3-piperidinecarboxamide] | < 1000 | < 20
CNc1nc(-c2cc(F)c3c(N)n[nH]c3c2)cc(N2C[C@@H](C(=O)NCc3ccccc3)CC[C@H]2C)n1 [Example 86, (3S,6R)-1-[6-(3-Amino-4-fluoro-1H-indazol-6-yl)-2-(methylamino)-4-pyrimidinyl]-6-methyl-N-(phenylmethyl)-3-piperidinecarboxamide] | < 1000 | –
C[C@@H]1CC[C@H](C(=O)NC2CCCCC2)CN1c1cc(-c2ccc3c(N)n[nH]c3c2)nc(N)n1 [Example 121, (3S,6R)-1-[2-Amino-6-(3-amino-1H-indazol-6-yl)-4-pyrimidinyl]-N-cyclohexyl-6-methyl-3-piperidinecarboxamide] | < 1000 | –
CC1CCC(NC(=O)[C@H]2CC[C@@H](C)N(c3cc(-c4ccc5c(N)n[nH]c5c4)nc(N)n3)C2)CC1 (stereo partly drawn) [Example 150, (3S,6R)-1-[2-Amino-6-(3-amino-1H-indazol-6-yl)-4-pyrimidinyl]-6-methyl-N-(4-methylcyclohexyl)-3-piperidinecarboxamide] | < 1000 | –
CNc1nc(-c2ccc3c(N)n[nH]c3c2)cc(N2C[C@@H](C(=O)NCc3ccccc3)OC[C@H]2C)n1 [Example 161, (2S,5R)-4-[6-(3-Amino-1H-indazol-6-yl)-2-(methylamino)-4-pyrimidinyl]-5-methyl-N-(phenylmethyl)-2-morpholinecarboxamide] | < 1000 | < 20
CC[C@@H]1CO[C@H](C(=O)NCc2ccccc2)CN1c1cc(-c2ccc3c(N)n[nH]c3c2)nc(NC)n1 [Example 176, (2S,5R)-4-[6-(3-Amino-1H-indazol-6-yl)-2-(methylamino)-4-pyrimidinyl]-5-ethyl-N-(phenylmethyl)-2-morpholinecarboxamide] | < 1000 | –
C[C@@H]1C[C@@H](NC(=O)OC(C)(C)C)CN(c2cc(-c3ccc4c(N)n[nH]c4c3)nc(N)n2)C1 [Example 212, 1,1-Dimethylethyl{(3R,5R)-1-[2-amino-6-(3-amino-1H-indazol-6-yl)-4-pyrimidinyl]-5-methyl-3-piperidinyl}carbamate] | < 1000 | –

From patent publication US8697685B2, “Chemical compounds” (GlaxoSmithKline LLC, priority 2008, dated 2014)
